What was measured:
BAZ2B bromodomain [1] = molecular target: T1, BAZ2B bromodomain (Homo sapiens, UniProt Q9UIF8); details: acetylated lysine alone; cited from earlier work
T1 sequence (Q9UIF8 1868-1972 isoform Q9UIF8-4): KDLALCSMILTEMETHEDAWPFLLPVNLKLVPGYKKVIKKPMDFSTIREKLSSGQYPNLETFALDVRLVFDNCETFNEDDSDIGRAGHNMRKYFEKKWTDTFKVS

BAZ2B bromodomain [2] = molecular target: T1, BAZ2B bromodomain; assay: ITC of H3K14ac peptides binding to BAZ2B bromodomain

Row | Compound | interaction with BAZ2B bromodomain (BAZ2B bromodomain [1]) | Kd (BAZ2B bromodomain [2]) [µM] | reduction in affinity relative to Peptide 4 (BAZ2B bromodomain [2]; ITC KD ratio) [fold]
1 | CC(=O)NCCCC[C@H](N)C(=O)O [Acetylated lysine, N-ε-acetyl lysine] | interact only very weakly |  | 
2 | CC(=O)NCCCC[C@H](NC(=O)CNC(=O)CNC(=O)[C@@H](NC(=O)[C@H](CO)NC(C)=O)[C@@H](C)O)C(=O)N[C@@H](C)C(=O)N1CCC[C@H]1C(=O)N[C@@H](CCCNC(=N)N)C(=O)N[C@@H](CCCCN)C(N)=O [Peptide 1] |  | 45 ± 3.3 | 2
3 | CC(=O)NCCCC[C@H](NC(=O)CNC(=O)CNC(=O)[C@@H](NC(=O)[C@H](CO)NC(=O)[C@H](CCCCN)NC(C)=O)[C@@H](C)O)C(=O)N[C@@H](C)C(=O)N1CCC[C@H]1C(=O)N[C@@H](CCCNC(=N)N)C(=O)N[C@@H](CCCCN)C(=O)N[C@@H](CCC(N)=O)C(N)=O [Peptide 3] |  | 15.7 ± 1.1 | 
4 | Ac-KSTGGK(Ac)APRK-NH2 [Peptide 4] |  | 21.8 ± 1.4 | 

Reference: paper PMC4458377 (Biochemistry, 2014)
